US20230123534A1, “LIPIDS FOR LIPID NANOPARTICLE DELIVERY OF ACTIVE AGENTS” (Acuitas Therapeutics, Inc., priority 2019, published 2023)
Read-outs that look alike come from different tables or passages of the source.

Tests used:
[1] = system: luciferase expression in the liver; test: In vivo luciferase mRNA expression rodent model (liver luciferase after tail vein injection of FLuc mRNA lipid nanoparticles); design: species or system mice; conditions: 0.5 mg mRNA/kg, liver 4 hours after administration, LNP 50% cationic lipid/10% DSPC/38.5% cholesterol/1.5% PEG-DMA or 47.5/10/40.7/1.8
[2] = system: luciferase expression in the liver; test: as above; design: species or system mice; conditions: liver 4 hours after administration, FLuc mRNA (L-6107) LNP 50% cationic lipid/10% DSPC/38.5% cholesterol/1.5% PEG-DMG; for Liver Luc @ 0.3 mg/kg dose: 0.3 mg mRNA/kg; for Liver Luc @ 1.0 mg/kg dose: 1.0 mg mRNA/kg
Procedure: Lipid nanoparticles were prepared and tested according to the general procedures described in PCT Pub. Nos. WO 2015/199952 and WO 2017/004143, the full disclosures of which are incorporated herein by reference. Briefly, cationic lipid, DSPC, cholesterol and PEG-lipid were solubilized in ethanol at a molar ratio of about 50:10:38.5:1.5 or about 47.5:10:40.8:1.7. Lipid nanoparticles (LNP) were prepared at a total lipid to mRNA weight ratio of approximately 10:1 to 30:1. The mRNA is diluted to 0.2 mg/mL in 10 to 50 mM citrate or acetate buffer, pH 4. Syringe pumps were used to mix the ethanolic lipid solution with the mRNA aqueous solution at a ratio of about 1:5 to 1:3 (vol/vol) with total flow rates above 15 mL/min. The ethanol was then removed and the external buffer replaced with PBS by dialysis. Finally, the lipid nanoparticles were filtered through a 0.2 µm pore sterile filter. Lipid nanoparticle particle size was approximately 55-95 nm diameter, and in some instances approximately 70-90 nm diameter as determined by quasi-elastic light scattering using a Malvern Zetasizer Nano ZS (Malvern, UK).
Studies were performed in 6-8 week old female C57BL/6 mice (Charles River) or 8-10 week old CD-1 (Harlan) mice (Charles River) according to guidelines established by an institutional animal care committee (ACC) and the Canadian Council on Animal Care (CCAC). Varying doses of mRNA-lipid nanoparticle were systemically administered by tail vein injection and animals euthanized at a specific time point (e.g., 4 hours) post-administration. Liver and spleen were collected in pre-weighed tubes, weights determined, immediately snap frozen in liquid nitrogen and stored at -80° C. until processing for analysis.
For liver, approximately 50 mg was dissected for analyses in a 2 mL FastPrep tubes (MP Biomedicals, Solon OH). ¼” ceramic sphere (MP Biomedicals) is added to each tube and 500 µL of Glo Lysis Buffer - GLB (Promega, Madison Wl) equilibrated to room temperature is added to liver tissue. Liver tissues were homogenized with the FastPrep24 instrument (MP Biomedicals) at 2 × 6.0 m/s for 15 seconds. Homogenate was incubated at room temperature for 5 minutes prior to a 1:4 dilution in GLB and assessed using SteadyGlo Luciferase assay system (Promega). Specifically, 50 µL of diluted tissue homogenate was reacted with 50 µL of SteadyGlo substrate, shaken for 10 seconds followed by 5 minute incubation and then quantitated using a CentroXS^3 LB 960 luminometer (Berthold Technologies, Germany). The amount of protein assayed was determined by using the BCA protein assay kit (Pierce, Rockford IL). Relative luminescence units (RLU) were then normalized to total µg protein assayed. To convert RLU to ng luciferase a standard curve was generated with QuantiLum Recombinant Luciferase (Promega).
The FLuc mRNA (L-6107 or L-7202) from Trilink Biotechnologies will express a luciferase protein, originally isolated from the firefly, photinus pyralis. FLuc is commonly used in mammalian cell culture to measure both gene expression and cell viability. It emits bioluminescence in the presence of the substrate, luciferin. This capped and poly-adenylated mRNA was fully substituted with respect to uridine and/or cytidine nucleosides.
The cationic lipids shown in Table 2 have previously been tested with nucleic acids. For comparative purposes, these lipids were also used to formulate lipid nanoparticles containing the FLuc mRNA (L-6107) using an in line mixing method, as described in Example 1 and in PCT/US10/22614, which is hereby incorporated by reference in its entirety. Lipid nanoparticles were formulated using the following molar ratio: 50% Cationic lipid / 10% distearoylphosphatidylcholine (DSPC) / 38.5% Cholesterol / 1.5% PEG lipid (“PEG-DMG”, i.e., 1-(monomethoxy-polyethyleneglycol)-2,3-dimyristoylglycerol, with an average PEG molecular weight of 2000). […]

[3] = Determination of pKa of formulated lipids (TNS fluorescence assay in lipid nanoparticles); format: physicochemical
Procedure: As described elsewhere, the pKa of formulated cationic lipids is correlated with the effectiveness of LNPs for delivery of nucleic acids (see Jayaraman et al, Angewandte Chemie, International Edition (2012), 51(34), 8529-8533; Semple et al, Nature Biotechnology 28, 172-176 (2010)). […] Lipid nanoparticles comprising cationic lipid/DSPC/cholesterol/PEG-lipid (50/10/38.5/1.5 mol%) in PBS at a concentration of 0.4 mM total lipid were prepared using the in-line process as described in Example 1. TNS was prepared as a 100 µM stock solution in distilled water. Vesicles were diluted to 24 µM lipid in 2 mL of buffered solutions containing, 10 mM HEPES, 10 mM MES, 10 mM ammonium acetate, 130 mM NaCl, where the pH ranged from 2.5 to 11. An aliquot of the TNS solution was added to give a final concentration of 1 µM and following vortex mixing fluorescence intensity was measured at room temperature in a SLM Aminco Series 2 Luminescence Spectrophotometer using excitation and emission wavelengths of 321 nm and 445 nm. A sigmoidal best fit analysis was applied to the fluorescence data and the pKa was measured as the pH giving rise to half-maximal fluorescence intensity.

[4] = Table 3, cationic lipid formulated in LNP, TNS fluorescence assay, read-out: pKa

Compound | Liver Luc @ 0.5 mg/kg (ng luc/g liver) [1] | Liver Luc @ 0.3 mg/kg dose [2] | Liver Luc @ 1.0 mg/kg dose [2] | also measured
CCCCCCCCCCN(C(=O)CCCN(C)C)C(CCCCCCCCC(=O)OCC(CCCC)CCCCCC)CCCCCCCCC(=O)OCC(CCCC)CCCCCC (stereo not shown) [Compound I-18, BIS(2-BUTYLOCTYL) 10-(N-DECYL-4-(DIMETHYLAMINO)BUTANAMIDO)NONADECANEDIOATE] | 13301 ± 8071 ng luc/g liver |  |  | 
CCCCC(CC)C(=O)OCCCCCCCCCC(CCCCCCCCCOC(=O)C(CC)CCCC)OC(=O)CCCN(C)C (stereo not shown) [Compound 137] |  | 281 ± 203 ng luciferase/g liver | 588 ± 303 ng luciferase/g liver | 
CCCCC/C=C\C/C=C\CCCCCCCCN(CCCCCCCC/C=C\C/C=C\CCCCC)CCN(C)C [A] |  | 77 ± 40 ng luciferase/g liver | 203 ± 122 ng luciferase/g liver | 
CCCCCCCCCCN(C(=O)CCCN1CCCC1)C(CCCCCC(=O)OCC(CCCCCC)CCCCCCCC)CCCCCC(=O)OCC(CCCCCC)CCCCCCCC (stereo not shown) [Compound I-29, BIS(2-HEXYLDECYL) 7-(N-DECYL-4-(PYRROLIDIN-1-YL)BUTANAMIDO)TRIDECANEDIOATE] | 5551 ± 1650 ng luc/g liver |  |  | 
CCCCCCCCCCN(C(=O)CCN(C)C)C(CCCCCC(=O)OCC(CCCCCC)CCCCCCCC)CCCCCC(=O)OCC(CCCCCC)CCCCCCCC (stereo not shown) [Compound I-35, BIS(2-HEXYLDECYL) 7-(N-DECYL-3-(DIMETHYLAMINO)PROPANAMIDO)TRIDECANEDIOATE] | 14312 ± 4174 ng luc/g liver |  |  | pKa [3, 4]: 6.39
CCCCCC/C=C\COC(=O)CCCCCCCC(CCCCCCCC(=O)OC/C=C\CCCCCC)OC(=O)CCCN(C)C [319 (2% PEG)] |  | 258 ± 67 ng luciferase/g liver | 681 ± 203 ng luciferase/g liver | 
CCCCCCCCCCN(C(=O)CCCN(C)C)C(CCCCCCCCCOC(=O)C(CCCC)CCCCCC)CCCCCCCCCOC(=O)C(CCCC)CCCCCC (stereo not shown) [Compound I-32, 10-(4-(DIMETHYLAMINO)-N-DECYLBUTANAMIDO)NONADECANE-1,19-DIYL BIS(2-BUTYLOCTANOATE)] | 4091 ± 713 ng luc/g liver |  |  | pKa ([3]; Table 1, cationic lipid formulated in LNP (cationic lipid/DSPC/cholesterol/PEG-lipid 50/10/38.5/1.5 mol%), TNS fluorescence, pH giving half-maximal fluorescence, read-out: pKa): 6.41
CCCCCCCCCCN(C(=O)CCN1CCCC1)C(CCCCCCCCC(=O)OCC(CCCC)CCCCCC)CCCCCCCCC(=O)OCC(CCCC)CCCCCC (stereo not shown) [Compound I-33, BIS(2-BUTYLOCTYL) 10-(N-DECYL-3-(PYRROLIDIN-1-YL)PROPANAMIDO)NONADECANEDIOATE] | 1304 ± 278 ng luc/g liver |  |  | 
CCCCCCCCCCN(C(=O)CCCCN(C)C)C(CCCCCCCCC(=O)OCC(CCCC)CCCCCC)CCCCCCCCC(=O)OCC(CCCC)CCCCCC (stereo not shown) [Compound I-7, BIS(2-BUTYLOCTYL) 10-(N-DECYL-5-(DIMETHYLAMINO)PENTANAMIDO)NONADECANEDIOATE] | 2420 ± 1079 ng luc/g liver |  |  | 
CCCCCCC(CCCC)COC(=O)CCCCCCCCC(CCCCCCCCC(=O)OCC(CCCC)CCCCCC)N(CC(CC)CCCC)C(=O)CCCN(C)C (stereo not shown) [Compound I-30, BIS(2-BUTYLOCTYL) 10-(4-(DIMETHYLAMINO)-N-(2-ETHYLHEXYL)BUTANAMIDO)NONADECANEDIOATE] | 13614 ± 3348 ng luc/g liver |  |  | pKa ([3]; Table 1, cationic lipid formulated in LNP (cationic lipid/DSPC/cholesterol/PEG-lipid 50/10/38.5/1.5 mol%), TNS fluorescence, pH giving half-maximal fluorescence): 6.47; pKa ([3]; Table 3, cationic lipid formulated in LNP, TNS fluorescence assay): 6.47
CCCCCCCCCCN(C(=O)CCCN(C)C)C(CCCCCC(=O)OCC(CCCCCC)CCCCCCCC)CCCCCC(=O)OCC(CCCCCC)CCCCCCCC (stereo not shown) [Compound I-16, BIS(2-HEXYLDECYL) 7-(N-DECYL-4-(DIMETHYLAMINO)BUTANAMIDO)TRIDECANEDIOATE] | 4678 ± 1243 ng luc/g liver |  |  | 
CCCCC/C=C\C/C=C\CCCCCCCCOCC(CN(C)C)OCCCCCCCC/C=C\C/C=C\CCCCC (stereo not shown) [DLinDMA] |  | 13 ± 3 ng luciferase/g liver | 67 ± 20 ng luciferase/g liver | 
CCCCC/C=C\C/C=C\CCCCCCCCC(CCCCCCCC/C=C\C/C=C\CCCCC)OC(=O)CCCN(C)C [MC3] |  |  | 757 ± 528 ng luciferase/g liver | 
CCCCCCCCCCN(C(=O)CCCCN(CC)CC)C(CCCCCCCCC(=O)OCC(CCCC)CCCCCC)CCCCCCCCC(=O)OCC(CCCC)CCCCCC (stereo not shown) [Compound I-8, BIS(2-BUTYLOCTYL) 10-(N-DECYL-5-(DIETHYLAMINO)PENTANAMIDO)NONADECANEDIOATE] | 7384 ± 1916 ng luc/g liver |  |  | 
CCCCCCCCCCN(C(=O)CCCCN1CCCC1)C(CCCCCCCCC(=O)OCC(CCCC)CCCCCC)CCCCCCCCC(=O)OCC(CCCC)CCCCCC (stereo not shown) [Compound I-9, BIS(2-BUTYLOCTYL) 10-(N-DECYL-5-(PYRROLIDIN-1-YL)PENTANAMIDO)NONADECANEDIOATE] | 2223 ± 777 ng luc/g liver |  |  | 
CCCCC/C=C\C/C=C\CCCCCCCCC1(CCCCCCCC/C=C\C/C=C\CCCCC)OC[C@@H](CCN(C)C)O1 [XTC2] |  | 80 ± 28 ng luciferase/g liver | 237 ± 99 ng luciferase/g liver | 
CCCCCCCCCCN(C(=O)CCCN(C)C)C(CCCCCCCCC(=O)OC(CCCCCC)CCCCCC)CCCCCCCCC(=O)OC(CCCCCC)CCCCCC [Compound I-37, DI(TRIDECAN-7-YL) 10-(N-DECYL-4-(DIMETHYLAMINO)BUTANAMIDO)NONADECANEDIOATE] | 15234 ± 5248 ng luc/g liver |  |  | pKa [3, 4]: 6.3
CCCCC/C=C\C/C=C\CCCCCCCCC(CCCCCCCC/C=C\C/C=C\CCCCC)OC(=O)CCCCN(C)C [MC4] |  | 41 ± 10 ng luciferase/g liver |  | 
CCCCCCCCC(CCCCCC)COC(=O)CCCCCC(CCCCCC(=O)OCC(CCCCCC)CCCCCCCC)N(CCCCCC(=O)OCC(CC)CCCC)C(=O)CCN(C)C (stereo not shown) [Compound I-36, BIS(2-HEXYLDECYL) 7-(3-(DIMETHYLAMINO)-N-(6-((2-ETHYLHEXYL)OXY)-6-OXOHEXYL)PROPANAMIDO)TRIDECANEDIOATE] | 10377 ± 1435 ng luc/g liver |  |  | pKa [3, 4]: 6.55
CCCCC/C=C\C/C=C\CCCCCCCCC(CCCCCCCC/C=C\C/C=C\CCCCC)OC(=O)CCN(C)C [MC2] |  | 4 ± 1 ng luciferase/g liver |  | 
